Experimental data as given in patent US20260242759A1, “GQ/11 Protein Peptidomimetics” (Vrije Universiteit Brussel, priority 2022, published 2026).
Non-standard residues stand in square brackets, D forms with d. Residues, ends and D or L forms follow the SMILES beside them. Cha = N[C@@H](CC1CCCCC1)C(=O)O

Legend:
[1] = molecular target: T1, human muscarinic 1 receptor (M1R) (Homo sapiens, UniProt P11229); assay: Radioligand binding assay (RLA) on M1R membrane extracts; settings: IC50 of agonist without mimetic divided by IC50 with mimetic; averaged value
T1 construct: The M1R constructs used in this assay consisted of the full-length human muscarinic 1 receptor; FLAG (N); expressed in transfected cells; membrane extracts
T1 sequence (P11229 1-460): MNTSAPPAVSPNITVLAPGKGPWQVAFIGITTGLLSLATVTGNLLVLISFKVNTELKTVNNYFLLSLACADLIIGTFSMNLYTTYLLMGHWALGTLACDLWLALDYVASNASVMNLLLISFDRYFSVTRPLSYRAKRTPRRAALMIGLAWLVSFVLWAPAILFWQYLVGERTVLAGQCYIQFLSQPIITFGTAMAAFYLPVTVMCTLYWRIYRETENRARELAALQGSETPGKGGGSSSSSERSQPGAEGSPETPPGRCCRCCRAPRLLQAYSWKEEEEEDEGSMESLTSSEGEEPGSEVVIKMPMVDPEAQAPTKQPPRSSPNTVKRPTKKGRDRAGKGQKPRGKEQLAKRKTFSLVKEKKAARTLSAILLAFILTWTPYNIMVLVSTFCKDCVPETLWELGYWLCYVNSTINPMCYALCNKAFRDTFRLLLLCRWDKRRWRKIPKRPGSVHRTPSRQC
Text: A radioligand displacement assay can quantify the pharmacological stabilization of the GPCR in the active conformation by comparing the affinities of an agonist for the basal versus the active GPCR conformer. In particular, stabilization of a GPCR in an active conformational state or specific binding to a GPCR in an active conformational state by a G protein peptidomimetic or a Gq/11 protein peptidomimetic as disclosed herein can be determined based on the shift in IC50 value of a ligand, in particular an agonist more particularly an orthosteric agonist, which binds to the GPCR when tested in the presence and the absence of the G protein peptidomimetic or the Gq/11 protein peptidomimetic. During the assay, the binding affinity of an orthosteric agonist for the receptor in presence and absence of the (allosteric) peptidomimetic is determined. Therefore, the GPCR, e.g. embedded in membrane extracts, is incubated with a radioligand and different concentrations of the agonist. By increasing the agonist concentration, radioligand will be displaced by the agonist. A leftward shift of the curve in the presence of the peptidomimetic is indicative of a peptidomimetic capable of stabilizing a GPCR in an active conformational state. A “shift” in IC50 value or IC50 shift is defined herein as the IC50 ratio of a ligand, in particular an agonist, more particularly an orthosteric agonist, which binds to the GPCR in the absence of a G protein peptidomimetic or a Gq/11 protein peptidomimetic relative to the presence of the G protein peptidomimetic or the Gq/11 protein peptidomimetic, or the IC50 value of a ligand, in particular an agonist, for binding to the GPCR in the absence of a G protein peptidomimetic or a Gq/11 protein peptidomimetic divided by the IC50 value of the ligand in the presence of the G protein peptidomimetic or the Gq/11 protein peptidomimetic in the same preparation, wherein said IC50 values are determined in a radioligand binding assay or radioligand displacement assay (RLA) as known to the skilled person. For example, a human muscarinic acetylcholine 1 receptor (M1R) radioligand binding assay using ^3H—N-methyl scopolamine (^3H-NMS) as the radioligand and increasing concentrations of acetylcholine chloride (agonist) as cold competitor may be used.
The membrane extracts were prepared from cells that overexpressed muscarinic acetylcholine 1 receptor (M1R), by resuspending the cell pellet in a buffer (1 ml buffer/2×1E7 cells) containing 20 mM Hepes (pH 7.4), 100 mM NaCl, Leupeptin and phenylmethylsulfonyl fluoride (PMSF). Afterwards the cells were vortexed and homogenized in ice using a small volume ULTRA-TURRAX® (6×10 sec). The cells were then centrifuged for 15 min at 16000 rcf, in a pre-cooled centrifuge (4° C.) and resuspended in the previous buffer containing 10% sucrose. Finally, the membranes were again homogenized in ice with the small volume ULTRA-TURRAX® (3×10 sec). The protein concentration in the membrane extracts was determined using a Pierce™ bicinchoninic acidv (BCA) Protein Assay Kit and the protein concentration was extrapolated from the Bovine Serum Albumine standard curve.
The M1R constructs used in this assay consisted of the full-length human muscarinic 1 receptor with a FLAG tag at the N-terminus. A buffer containing 20 mM Hepes pH 7.4, 100 mM NaCl, and 0.1% BSA was used for the ligands, membrane extracts and peptides (+1% dimethylsulfoxide (DMSO)). The competition assay was performed with [3H]—N-methyl scopolamine ([3H]-NMS) as radiolabeled antagonist, at a final concentration of 0.6 nM. A ten-fold dilution series of the agonist, acetylcholine chloride, was prepared to obtain a dose response curve. After incubation, the samples were harvested into filter plates (GF/C) and washed with ice cold washing buffer (20 mM Hepes pH 7.4) using the 96-well harvester. […]

[2] = molecular target: T2, ghrelin receptor (Homo sapiens, UniProt Q92847); assay: IP-One Gq assay; format: cell-based; settings: peptidomimetic at 10 μM, varying MK0677; FIG. 8
T2 construct: expressed in transfected cells; host or cells: HEK293 cells overexpressing the ghrelin receptor
Description: IP-One assays were conducted by using a homogeneous time-resolved fluorescence resonance energy transfer (TRFRET) assay (cisbio, IP-One Gq kit). The assays were performed on 384-well plates, containing 5000 cells/well. The HEK293 cells, in stimulation buffer (1×), were incubated with 5 or 10 μM of peptides (in stimulation buffer) during 1 h at 37° C. […] Finally, the d2-labeled IP1 and anti-IP1-cryptate, diluted in lysis buffer, were added to each well and incubated at room temperature. After 2 h of incubation in the dark, the plates were analyzed using the PHERAstar microplate reader.
The IP-One Gq assay detects the accumulation of inositol monophosphate (IP1), a metabolite produced following phospholipase C activation.
The assays were performed on 384-well plates containing HEK293 cells that overexpress the ghrelin receptor. First, the Gq/11 peptidomimetics were incubated during 1 h to allow penetration in the cells. […] After 45 min of incubation, the cells were lysed and d2-labeled IP1 (acceptor, 665 nm) was exogenously added to compete with the native unlabeled IP1 for binding with the anti-IP1-Cryptate (donor, 620 nm). Fluorescence was measured and the fluorescence ratio (665 nm/620 nm) was determined.

[3] = tested on: HEK293 1C8 cells; assay: MTT cytotoxicity assay; format: cell-based, human; settings: varying concentrations up to 40 μM, 3 h 45 min
Description: Cells were washed two times with PBS and incubated with 3-(4,5-dimethylthiazol-2-yl)-2,5-diphenyltetrazolium bromide (MTT) during 3 h, at 37° C. Afterwards, cells were washed once with PBS and then incubated for 10 min with DMSO. Plates were analysed with a Tecan Spark 10 M microplate reader.
An MTT assay was used to assess the cytotoxicity of the non-fluorescent Gq/11 peptidomimetics of Example 5. An MTT assay is a colorimetric test that evaluates the cell metabolic activity and reflects the cell viability.

T2 sequence (Q92847 whole entry): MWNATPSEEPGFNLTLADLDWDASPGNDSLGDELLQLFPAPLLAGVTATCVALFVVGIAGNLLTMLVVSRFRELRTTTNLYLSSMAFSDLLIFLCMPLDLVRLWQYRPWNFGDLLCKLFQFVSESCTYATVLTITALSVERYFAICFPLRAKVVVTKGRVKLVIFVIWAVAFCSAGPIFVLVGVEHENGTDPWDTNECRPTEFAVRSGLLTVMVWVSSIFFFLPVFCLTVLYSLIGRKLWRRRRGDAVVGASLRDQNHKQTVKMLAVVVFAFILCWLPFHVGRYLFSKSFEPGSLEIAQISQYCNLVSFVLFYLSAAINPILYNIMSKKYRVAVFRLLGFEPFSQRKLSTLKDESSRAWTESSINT

## CC[C@H](C)[C@H](NC(=O)[C@@H](NC(=O)[C@H](CC(=O)O)NC(=O)[C@H](CCCCN)NC(=O)[C@@H](NC(=O)[C@H](C)NC(=O)[C@H](C)NC(=O)[C@H](Cc1ccccc1)NC(=O)[C@H](CCCCN)NC(=O)[C@H](CCCCN)NC(=O)[C@H](CCCCN)NC(C)=O)C(C)C)[C@@H](C)O)C(=O)N[C@@H](CC(C)C)C(=O)N[C@@H](CCC(N)=O)C(=O)N[C@@H](CC(C)C)C(=O)N[C@@H](CC(N)=O)C(=O)N[C@@H](CC(C)C)C(=O)N[C@@H](CCCCN)C(=O)N[C@@H](CCC(=O)O)C(=O)N[C@@H](Cc1ccc(O)cc1)C(=O)N[C@@H](CC(N)=O)C(=O)N[C@@H](CC1CCCCC1)C(=O)N[C@H](C(=O)O)C(C)C [SBL-GQ-04] (Ac-KKKFAAVKDTILQLNLKEYN[Cha]V-OH)
[1]
  Shift: 4
[2]
  receptor activation / fluorescence ratio (665 nm/620 nm) vs absence of peptidomimetic: Almost no difference in receptor activation
[3]
  cytotoxicity / viability: No cytotoxicity
